# Experimental data: patent US8853258B2, “C-linked hydroxamic acid derivatives useful as antibacterial agents” (Pfizer Inc., priority 2009, dated 2014)
# Like-named read-outs stand apart in the source and are kept apart here.
# Experiments:
# Format in all cases: cell-based
# [1] = test system: Acinetobacter baumanii/haemolyticus: Multidrug-resistant clinical isolate (AB-3167); assay: MIC determination (CLSI), AB-3167; settings: for AB-3167 MIC: Acinetobacter baumanii/haemolyticus multidrug-resistant clinical isolate AB-3167; for MIC: Acinetobacter baumannii
# Procedure: (§1) The in vitro antibacterial activity of compounds described in the Examples was evaluated by minimum inhibitory concentration (MIC) testing according to Clinical and Laboratory Standards Institute (CLSI, formerly NCCLS) guidelines. See: Clinical and Laboratory Standards Institute. Methods for Dilution Antimicrobial Susceptibility Tests for Bacteria that Grow Aerobically; Approved Standard-Seventh Edition. CLSI document M7-A7 [ISBN 1-56238-587-9]. Clinical and Laboratory Standards Institute, 940 West Valley Road, Suite 1400, Wayne, Pa. 19087-1898 USA, 2006; also Clinical and Laboratory Standards Institute. Performance Standards for Antimicrobial Susceptibility Testing; Eighteenth Informational Supplement. CLSI document M100-S18 [ISBN1-56238-653-0]. Clinical and Laboratory Standards Institute.
# (§2) The following bacterial strains were used in these MIC determinations:
# 2) Acinetobacter baumanii/haemolyticus: Multidrug-resistant clinical isolate labeled as AB-3167 in Tables 1, 2 and 3;
# [2] = test system: Klebsiella pneumoniae: Ciprofloxacin-resistant isolate, ESBL, clinical isolate (KP-3700); assay: MIC determination (CLSI), KP-3700
# Procedure: as §1, §2
# 4) Klebsiella pneumoniae: Ciprofloxacin-resistant isolate, expresses extended-spectrum beta-lactamases (ESBL), clinical isolate, labeled as KP-3700 in Tables 1, 2, and 3.
# [3] = test system: Escherichia coli EC-1: VOGEL, mouse virulent; assay: MIC determination (CLSI), EC-1; settings: for EC-1 MIC: Escherichia coli EC-1 VOGEL, mouse virulent; for MIC: Escherichia coli
# Procedure: as §1, §2
# 3) Escherichia coli EC-1: VOGEL, mouse virulent labeled as EC-1 in Tables 1, 2 and 3;
# [4] = test system: Pseudomonas aeruginosa UI-18: Wild-type (PA-7); assay: MIC determination (CLSI), PA-7; settings: for PA-7 MIC: Pseudomonas aeruginosa UI-18 wild-type PA-7; for MIC: Pseudomonas aeruginosa
# Procedure: as §1, §2
# 1) Pseudomonas aeruginosa UI-18: Wild-type, labeled as PA-7 in Tables 1, 2 and 3;
# [5] = Table 1, MIC, read-out: AB-3167 (MIC)
# [6] = Table 1, MIC, read-out: PA-7 (MIC)
Compound,AB-3167 MIC [1],KP-3700 MIC [2],EC-1 MIC [3],PA-7 MIC [4] [µg/mL],"MIC ([1]; Table 3, read-out: AB-3167 MIC) [µg/mL]",MIC ([3]; read-out: EC-1 MIC) [µg/mL],"MIC ([4]; Table 3, read-out: PA-7 MIC) [µg/mL]","MIC [1, 5] [µg/mL]",MIC ([3]; read-out: EC-1: (MIC)) [µg/mL],"MIC [4, 6] [µg/mL]"
CC(CCc1ccc(-c2cc(F)cc(F)c2)cc1)(C(=O)NO)S(C)(=O)=O (stereo not drawn) [Example 97],8 µg/mL,4 µg/mL,2 µg/mL,1,,,,,,
CCc1ccccc1-c1ccc(CCC(C)(C(=O)NO)S(C)(=O)=O)cc1 (racemic) [Example 69],≧64 mg/L,≧64 mg/L,16 µg/mL,16,,,,,,
"Cc1ccc(-c2noc(COc3ccc(CCC(C)(C(=O)NO)S(C)(=O)=O)cc3)n2)cc1 (stereo not drawn) [Example 269, N-hydroxy-2-methyl-4-(4-{[3-(4-methylphenyl)-1,2,4-oxadiazol-5-yl]methoxy}phenyl)-2-(methylsulfonyl)butanamide]",,≧64 mg/L,,,≥ 64,4,≥ 64,,,
"CC(CCc1ccc(OCCCOCc2ccccc2)cc1)(C(=O)NO)S(C)(=O)=O (stereo not drawn) [Example 243, 4-{4-[3-(benzyloxy)propoxy]phenyl}-N-hydroxy-2-methyl-2-(methylsulfonyl)butanamide]",,≧64 mg/L,,,32,32,≥ 64,,,
"CC(CCc1ccc(Oc2ccccc2)cc1)(C(=O)NO)S(C)(=O)=O (stereo not drawn) [Example 10, N-Hydroxy-2-methyl-2-(methylsulfonyl)-4-(4-phenoxyphenyl)butanamide]",,32 µg/mL,,,,,,32,16,8
COc1cccc(-c2ccc(CCC(C)(C(=O)NO)S(C)(=O)=O)cn2)c1F (stereo not drawn) [Example 134],≧64 mg/L,16 µg/mL,4 µg/mL,4,,,,,,
"Cc1ccc(C)c(COc2ccc(CCC(C)(C(=O)NO)S(C)(=O)=O)cc2)c1 (stereo not drawn) [Example 254, 4-{4-[(2,5-dimethylbenzyl)oxy]phenyl}-N-hydroxy-2-methyl-2-(methylsulfonyl)butanamide]",,≧64 mg/L,,,16,8,16,,,
"CC(CCc1ccc(OCCOc2ccccc2)cc1)(C(=O)NO)S(C)(=O)=O (stereo not drawn) [Example 248, N-hydroxy-2-methyl-2-(methylsulfonyl)-4-[4-(2-phenoxyethoxy)phenyl]butanamide]",,8 µg/mL,,,32,2,32,,,
CC(CCc1ccc(-c2cccnc2)cc1)(C(=O)NO)S(C)(=O)=O (racemic) [Example 61],≧64 mg/L,≧64 mg/L,≧64 mg/L,16,,,,,,
C[C@@](CCc1ccc(-c2ccc(F)cc2)cc1)(C(=O)NO)S(C)(=O)=O [Example 110],8 µg/mL,4 µg/mL,2 µg/mL,0.25,,,,,,
"CC(CCc1ccc(OCCCC2CCCC2)cc1)(C(=O)NO)S(C)(=O)=O (stereo not drawn) [Example 313, 4-[4-(3-cyclopentylpropoxy)phenyl]-N-hydroxy-2-methyl-2-(methylsulfonyl)butanamide]",,16 µg/mL,,,2,4,16,,,
"CC(CCc1ccc(OCC2CC2)cc1)(C(=O)NO)S(C)(=O)=O (stereo not drawn) [Example 246, 4-[4-(cyclopropylmethoxy)phenyl]-N-hydroxy-2-methyl-2-(methylsulfonyl)butanamide]",,≧64 mg/L,,,≥ 64,32,≥ 64,,,
"CC(CCc1ccc(OCc2c(F)cccc2Cl)cc1)(C(=O)NO)S(C)(=O)=O (stereo not drawn) [Example 276, 4-{4-[(2-chloro-6-fluorobenzyl)oxy]phenyl}-N-hydroxy-2-methyl-2-(methylsulfonyl)butanamide]",,16 µg/mL,,,32,4,4,,,
"CC(CCc1ccc(OCCc2ccccc2)cc1)(C(=O)NO)S(C)(=O)=O (stereo not drawn) [Example 271, N-hydroxy-2-methyl-2-(methylsulfonyl)-4-[4-(2-phenylethoxy)phenyl]butanamide]",,≧64 mg/L,,,32,16,≥ 64,,,
COc1ccc(CCC(C)(C(=O)NO)S(C)(=O)=O)cc1 (stereo not drawn) [Example 135],≧64 mg/L,≧64 mg/L,≧64 mg/L,32,,,,,,
COc1ccc(-c2ccc(CCC(C)(C(=O)NO)S(C)(=O)=O)cc2)c(OC)c1 (racemic) [Example 65],32 µg/mL,2 µg/mL,1 µg/mL,2,,,,,,
"CC(CCc1ccc(OCc2nc(C3CCCC3)no2)cc1)(C(=O)NO)S(C)(=O)=O (stereo not drawn) [Example 273, 4-{4-[(3-cyclopentyl-1,2,4-oxadiazol-5-yl)methoxy]phenyl}-N-hydroxy-2-methyl-2-(methylsulfonyl)butanamide]",,32 µg/mL,,,≥ 64,16,≥ 64,,,
CS(=O)(=O)C(CCc1ccc(-c2ccccc2)cc1)C(=O)NO (stereo not drawn) [Example 36],32 µg/mL,16 µg/mL,16 µg/mL,2,,,,,,
Cc1cc(-c2ccc(CCC(C)(C(=O)NO)S(C)(=O)=O)cc2)ccc1O (stereo not drawn) [Example 137],≧64 mg/L,32 µg/mL,16 µg/mL,4,,,,,,
CC(CCc1ccc(-c2ccc(CO)cc2)cc1)(C(=O)NO)S(C)(=O)=O (stereo not drawn) [Example 112],≧64 mg/L,≧64 mg/L,≧64 mg/L,4,,,,,,
"C[C@@](CCc1ccc(-c2ccccc2)cc1)(C(=O)NO)S(C)(=O)=O [Example 7, (2R)-4-Biphenyl-4-yl-N-hydroxy-2-methyl-2-(methylsulfonyl)butanamide]",,2 µg/mL,,,,,,16,0.5,0.5
COc1ccc(-c2ccc(CCC(C)(C(=O)NO)S(C)(=O)=O)cc2)cc1F (racemic) [Example 66],16 µg/mL,8 µg/mL,1 µg/mL,1,,,,,,
CC(CCc1ccc(-c2ccc(C#N)cc2)cc1)(C(=O)NO)S(C)(=O)=O (stereo not drawn) [Example 29],≧64 mg/L,2 µg/mL,1 µg/mL,1,,,,,,
CC(CCc1ccc(-c2ccc(OCCN)cc2)cc1)(C(=O)NO)S(C)(=O)=O (stereo not drawn) [Example 116],≧64 mg/L,≧64 mg/L,≧64 mg/L,4,,,,,,
CC(CCc1ccc(-c2ccc(OCCCCN)cc2)cc1)(C(=O)NO)S(C)(=O)=O (stereo not drawn) [Example 118],≧64 mg/L,≧64 mg/L,32 µg/mL,16,,,,,,
CC(CCc1ccc(-c2ccc(C#N)cc2)cn1)(C(=O)NO)S(C)(=O)=O (stereo not drawn) [Example 163],≧64 mg/L,32 µg/mL,32 µg/mL,8,,,,,,
CNC(=O)c1ccc(-c2ccc(CCC(C)(C(=O)NO)S(C)(=O)=O)cc2)cc1 (racemic) [Example 85],≧64 mg/L,≧64 mg/L,32 µg/mL,16,,,,,,
